Series [1] is described as follows: Drug loading of liposomes by remote loading: drug to lipid molar ratio and encapsulation efficiency. The settings on record: 300 mM AS, 2 mg/mL drug. Format: physicochemical.
Procedure: The dry lipid was hydrated in a trapping agent, 300 mM ammonium sulfate (AS), for 30 min at the temperature above the transition temperature to form the MLVs. […] After extrusion, unencapsulated trapping agent was removed by dialysis method or diafiltration method against 9.4% sucrose solution or 0.9% NaCl to create a polyatomic ion gradient between the inner aqueous phase and the outer aqueous phase of the empty liposomes.
A reaction mixture containing 10.0 mg/mL of sunitinib (LC Laboratories, USA), empty liposomes (with 20.0 mM of lipids prepared according to Example 1), and 40 mM histidine buffer (pH 7) was incubated at 40° C. for 15 min The unencapsulated sunitinib of the reaction mixture was removed by a Sephadex™ G-50 Fine gel (GE Healthcare, USA) or dialysis bag (Spectrum Labs, USA) against a 9.4% sucrose solution to obtain a liposomal sunitinib formulation. The encapsulated sunitinib concentration and the lipid concentration of the liposomal sunitinib formulation were measured using an ultraviolet/visible (UV/Vis) spectrophotometer to calculate the drug to lipid molar ratio (D/L) of the liposomal sunitinib formulation.
The encapsulation efficiency was calculated by comparing the drug to lipid molar ratio (D/L) of the liposomal sunitinib formulation to the nominal D/L of the reaction mixture, which is dividing the initial added concentration of sunitinib by the initial added concentration of lipid of empty liposome.
An initial loading concentration of 4.0 mg/mL of sunitinib or sunitinib malate was mixed with the empty liposomes according to the procedures of Example 2.
A short description of series [2]: In vitro release through dialysis bag in rabbit vitreous humor. Format: in vitro ADME. As to conditions: PBS pH 7.4, 37° C., released immediately, FIG. 1.
Procedure: Each dialysis bag contained 950 μL of rabbit vitreous humor (Pel-Freez Biologicals, USA) and both ends of the dialysis bags were then sealed. Each dialysis bag was immersed in 25 mL of PBS at pH 7.4 in a 50-mL centrifuge tube and incubated in a water bath at 37±1° C. for 24 hours. At designated time points after incubation (1, 2, 4, 6, 24, 48, 122, 146 and 168 hours), 0.5 mL aliquot from the 25 mL PBS inside each centrifuge tube was sampled and 0.5 mL of fresh PBS was added to replenish the sampled aliquot. Drug concentrations of the sampled aliquots at each time point were analyzed using high performance liquid chromatography (HPLC) to create the in vitro release profile of the liposomal composition.
[3] abbreviates: liposomes DOPC/cholesterol (66.7/33.3).
[4] abbreviates: liposomes POPC/cholesterol (66.7/33.3).

Where a name gives a salt, the structure may show the parent alone.

`Cc1ccc(NC(=O)c2ccc(CN3CCN(C)CC3)cc2)cc1Nc1nccc(-c2cccnc2)n1` [Imatinib, imatinib mesylate]: in series [1] (setting [3]), the “EE (%), encapsulation efficiency” value was found to be 91.3% and the “Purified D/PL (mole/mole)” value came out at 1.24 mole/mole. In series [1] (setting [4]), the “EE (%), encapsulation efficiency” value is 66.6% and the “Purified D/PL (mole/mole)” value is 0.90 mole/mole.
With `CCN(CC)CCNC(=O)c1c(C)[nH]c(/C=C2\C(=O)Nc3ccc(F)cc32)c1C` [free sunitinib, sunitinib], in series [2], the “time after which release reached a plateau” value was determined as 6 h.

The values are drawn from patent US20210275447A1, “SUSTAINED-RELEASE OPHTHALMIC PHARMACEUTICAL COMPOSITIONS AND USES THEREOF” (TAIWAN LIPOSOME CO., LTD., priority 2018, published 2021).
